# Experimental data as given in patent US8513233B2, “Pyrimidinyl-propionic acid derivatives and their use as PPAR agonists” (Shanghai Institute of Materia Medica, CAS, priority 2007, dated 2013).
# Read-outs that look alike come from different tables or passages of the source.
# Experiments:
# [1] = tested on: Han:SPRD rat model of ADPKD; assay type: in vivo; details: for 24-hour urine protein level / Blood urea nitrogen (BUN) levels: Treatment Group 10 mg/kg.d
# Description: Han: SPRD rats were obtained from our own breeding colony that is derived from animals that were kindly provided to us by Mayo Clinic (Rochester Minn.), All animal procedures and care were taken at the SPF-level Laboratory Animal Center of the Second Military Medical University (Shanghai, […].). Carboxymethyl cellulose sodium (CMC-Na) was purchased from Shanghai Chemical Reagent Company. Automatic clinical chemistry analyzer (Hitachi Clinical Analyzer 7080).
# 2.1 Experimental protocol: A total of 48 Han:SPRD rats (about ⅔ rats were Cy/+, ⅓ were +/+, homozygote rats −/− die within 3 weeks), all at 3 weeks of age, were randomized into 2 groups: negative control group and treatment groups (10 mg/kg.d compound 2). The rats of negative control group were given 1% CMC-Na, while the rats of treatment group were given 10 mg/kg.d compound 2 (suspended in 1% CMC-Na) by daily gavage from 3 weeks through 11 weeks of age, removal +/+ rats in both groups, then general animal feeds were given to rats in control group, the rats of treatment group were given animal feeds added by 0.03% of compound 2 (approximately 10 mg/kg. d), both groups were maintained with free access to water. Long-term observation of the rats until they died, record the length of their life span. 2.2 Physiological and biochemical indexes: since the day of treatment, general state and body weight of rats were examined and recorded every month, Blood (2 ml) was obtained from the rat orbital venous plexus using a glass capillary tube, then centrifuged for 10 minutes at 4000 rpm to collect serum for biochemical analysis including blood urea nitrogen (BUN), ALT, AST, serum lipids et. Urine was collected using Metabolic Cage for 24-hour urine protein analysis. 3.
# T24 = assay: Growth inhibition, modified MTT assay, T24; assay type: cell-based; details: Homo sapiens, T-24, mean of 3 independent tests
# Procedure: (§1) The growth inhibition was evaluated by the modified MTT assay. Briefly, the cells were seeded at 1×10^4 cells/well in 96-well plates (Falcon, Calif., USA), and incubated for 24 h in […] culture media with 10% FCS. The media were then replaced by serum-free medium. After 24 h, the media were placed in triplicate with grade concentrations of compounds. As controls, the cells were cultivated in DMEM/F12 only. The cells were then treated by MTT (Sigma, USA) assay, […] (5 g/L) for 4 h. After the removal of the supernatant, the purple-blue sediment was dissolved in 100 μL/well DMSO, and the optical densities were read on the multi-well scanning spectrophotometer (Labsystems Dragon, Finland) at 492 nm (A492). The growth inhibition rate (GIR) of the treated cells was calculated using Equation: GIR(%)={1−[A490/A490(control)]}×100% The results were also converted to IC50 (the compound concentration required for 50% growth inhibition of tumor cells), which were calculated by using the sigmoidal fitting model by the Origin 7.0 software (OriginLab, Northampton, Mass., USA). The mean IC50 was determined from the results of 3 independent tests.
# PPAR-γ = target: T1, PPAR-γ (Homo sapiens, UniProt P37231); assay: Transient transfection and transcription assay (luciferase reporter, U2OS cells); assay type: cell-based; details: 24 h treatment
# T1 construct: expressed in transfected cells; host or cells: U2OS cells, transiently transfected with pcDNA3.1 expression vectors (FuGene6)
# T1 sequence (P37231 1-505): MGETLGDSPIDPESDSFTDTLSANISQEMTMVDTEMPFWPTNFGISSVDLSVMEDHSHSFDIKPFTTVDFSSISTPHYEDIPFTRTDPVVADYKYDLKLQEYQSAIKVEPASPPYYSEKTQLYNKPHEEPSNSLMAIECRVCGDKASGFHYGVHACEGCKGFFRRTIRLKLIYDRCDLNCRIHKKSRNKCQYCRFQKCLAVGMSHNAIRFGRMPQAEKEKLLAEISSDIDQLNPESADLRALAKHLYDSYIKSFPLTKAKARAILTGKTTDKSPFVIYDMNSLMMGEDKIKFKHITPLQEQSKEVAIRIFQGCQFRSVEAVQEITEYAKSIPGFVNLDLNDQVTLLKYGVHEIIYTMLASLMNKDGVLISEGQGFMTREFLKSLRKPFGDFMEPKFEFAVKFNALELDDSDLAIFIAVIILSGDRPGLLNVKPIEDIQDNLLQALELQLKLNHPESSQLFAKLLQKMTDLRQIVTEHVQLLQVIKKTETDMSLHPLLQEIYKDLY
# T1 sequence (P19793 1-462 partner): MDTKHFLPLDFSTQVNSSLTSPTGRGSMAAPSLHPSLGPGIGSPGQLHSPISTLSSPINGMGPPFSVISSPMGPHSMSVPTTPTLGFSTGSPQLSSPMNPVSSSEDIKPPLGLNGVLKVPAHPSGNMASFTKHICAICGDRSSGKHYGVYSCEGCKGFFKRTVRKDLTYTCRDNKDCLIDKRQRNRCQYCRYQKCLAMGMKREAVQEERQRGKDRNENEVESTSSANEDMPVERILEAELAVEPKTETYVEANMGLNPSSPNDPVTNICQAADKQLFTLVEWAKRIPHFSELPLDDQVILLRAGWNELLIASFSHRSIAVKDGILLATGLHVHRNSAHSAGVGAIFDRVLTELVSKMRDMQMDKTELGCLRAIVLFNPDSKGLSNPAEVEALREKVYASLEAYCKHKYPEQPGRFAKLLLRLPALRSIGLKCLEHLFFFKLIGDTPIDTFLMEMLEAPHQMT
# Procedure: cDNAs for Human RXR, PPAR were obtained by RTPCR from the human liver or adipose tissues. Amplified cDNAs were cloned into pcDNA3.1 expression vector and the inserts were confirmed by sequencing. U2OS cells were cultured in McCoy's 5A with 10% heat-inactivated fetal bovine serum in a humidified 5% CO2 atmosphere at 37° C. Cells were seeded in 96-well plates the day before transfection to give a confluence of 50-80% at transfection. A total of 60 ng of DNA containing 10 ng of hRXR, 10 ng of pCMV Gal, 10 ng of nuclear receptor expression vectors and 30 ng of the corresponding reporters were cotransfected per well using FuGene6 transfection reagent according to the manufacturer's instructions. […] The final concentration of DMSO in culture medium was 0.1%. […] Luciferase activity was monitored using the luciferase assay kit according to the manufacturers instructions. Light emission was read in a Labsystems Ascent Fluoroskan reader. To measure galactosidase activity to normalize the luciferase data, 50 IL of supernatant from each transfection lysate was transferred to a new microplate. Galactosidase assays were performed in the microwell plates using a kit from Promega and read in a microplate reader. Compounds were tested in five concentrations ranging from 0.01 to 10 μM. […] The results were expressed as means (SD).
# HepG2 = assay: Growth inhibition, modified MTT assay, HepG2; assay type: cell-based; details: Homo sapiens, mean of 3 independent tests
# Procedure: as §1
# SPC-A1 = assay: Growth inhibition, modified MTT assay, SPC-A1; assay type: cell-based; details: SPCA1, mean of 3 independent tests
# Procedure: as §1
# MCF-7 = assay: Growth inhibition, modified MTT assay, MCF-7; assay type: cell-based; details: Homo sapiens, MCF7; MCF-7, MTT, mean of 3 independent tests
# Procedure: as §1
# [2] = after 2 months of treatment, P<0.001
compound,measurement,setting,value
"CC(Cc1ccc(Oc2cc(N3CCN(Cc4ccccc4)CC3)nc(N)n2)cc1)(Oc1ccccc1)C(=O)O (racemic) [Compound 2, rac-3-{4-[2-Amino-6-(4-benzyl-piperazin-1-yl)-pyrimidin-4-yloxy]-phenyl}-2-methyl-2-phenoxy-propionic acid]",24-hour urine protein level,[1]; 1 month,62.3 ± 6.3 mg/24 h
same,Blood urea nitrogen (BUN) levels,[1]; 1 month,11.55 ± 0.57 mmol/L
same,24-hour urine protein level,[1]; 2 month,64.1 ± 5.0 mg/24 h
same,Blood urea nitrogen (BUN) levels,[1]; 2 month,12.36 ± 0.77 mmol/L
same,24-hour urine protein level,[1]; 3 month,67.1 ± 4.9 mg/24 h
same,Blood urea nitrogen (BUN) levels,[1]; 3 month,12.58 ± 1.35 mmol/L
same,24-hour urine protein level,[1]; 4 month,66.3 ± 4.6 mg/24 h
same,Blood urea nitrogen (BUN) levels,[1]; 4 month,12.79 ± 1.41 mmol/L
same,24-hour urine protein level,[1]; 5 month,67.1 ± 3.6 mg/24 h
same,Blood urea nitrogen (BUN) levels,[1]; 5 month,13.10 ± 1.64 mmol/L
same,24-hour urine protein level,[1]; 6 month,66.0 ± 8.6 mg/24 h
same,Blood urea nitrogen (BUN) levels,[1]; 6 month,13.26 ± 1.05 mmol/L
same,24-hour urine protein level,[1]; 7 month,64.4 ± 2.8 mg/24 h
same,Blood urea nitrogen (BUN) levels,[1]; 7 month,12.60 ± 1.40 mmol/L
same,24-hour urine protein level,[1]; 8 month,70.4 ± 8.8 mg/24 h
same,Blood urea nitrogen (BUN) levels,[1]; 8 month,13.16 ± 1.73 mmol/L
same,24-hour urine protein level,[1]; 9 month,67.8 ± 3.2 mg/24 h
same,Blood urea nitrogen (BUN) levels,[1]; 9 month,12.87 ± 2.72 mmol/L
same,24-hour urine protein level,[1]; 10 month,70.0 ± 5.9 mg/24 h
same,Blood urea nitrogen (BUN) levels,[1]; 10 month,13.17 ± 3.70 mmol/L
same,24-hour urine protein level,[1]; baseline,Non-detected
same,Blood urea nitrogen (BUN) levels,[1]; baseline,4.97 ± 0.67 mmol/L
same,average 24-hour urine protein level compared with the negative control group,[1]; [2],lower
same,average BUN level compared with control group,[1]; [2],lower
same,life span of Han:SPRD rats,"[1]; at suitable dose, FIG. 1",prolong the life span
same,change in body weight,"[1]; rat, in vivo",no statistically significant change
same,poisonous and side effects,"[1]; rat, in vivo",without any obvious poisonous and side effects
same,serum ALT,"[1]; rat, in vivo",within the normal range
same,serum AST,"[1]; rat, in vivo",within the normal range
same,serum lipids,"[1]; rat, in vivo",within the normal range
same,average survival time,"[1]; treatment group, long-term, 2 rats still alive",≥ 451.1 days
same,IC50,T24,72 µM
same,EC50,PPAR-γ,6.76 µM
same,IC50,HepG2,80.6 µM
same,IC50,SPC-A1,65.5 µM
same,IC50,MCF-7,55 µM
"CC(Cc1ccc(Oc2cc(N3CCN(Cc4ccc(F)cc4)CC3)nc(N)n2)cc1)(Oc1ccccc1)C(=O)O (centres unmarked) [Compound 7, 3-{4-{2-Amino-6-[4-(4-fluoro-benzyl)-piperazin-1-yl]-pyrimidin-4-yloxy}-phenyl}-2-methyl-2-phenoxy-propionic acid]",melting point,,107 to 109 °C
same,IC50,T24,> 50 µM
same,IC50,HepG2,> 50 µM
same,IC50,SPC-A1,> 50 µM
same,IC50,MCF-7,> 50 µM
"CC(Cc1ccc(Oc2cc(N3CCN(Cc4ccc(C(F)(F)F)cc4)CC3)nc(N)n2)cc1)(Oc1ccccc1)C(=O)O (centres unmarked) [Compound 8, 3-{4-{2-Amino-6-[4-(4-trifluoromethyl-benzyl)-piperazin-1-yl]-pyrimidin-4-yloxy}-phenyl}-2-methyl-2-phenoxy-propionic acid]",melting point,,114 to 115 °C
same,IC50,T24,36.2 µM
same,IC50,HepG2,> 50 µM
same,IC50,SPC-A1,42.5 µM
same,IC50,MCF-7,28.5 µM
"CC(Cc1ccc(Oc2cc(N3CCN(Cc4ccc(Cl)cc4)CC3)nc(N)n2)cc1)(Oc1ccccc1)C(=O)O (centres unmarked) [Compound 13, 3-{4-{2-Amino-6-[4-(4-chloro-benzyl)-piperazin-1-yl]-pyrimidin-4-yloxy}-phenyl}-2-methyl-2-phenoxy-propionic acid]",melting point,,103 to 105 °C
same,IC50,T24,45.6 µM
same,IC50,HepG2,> 50 µM
same,IC50,SPC-A1,> 50 µM
same,IC50,MCF-7,48.9 µM
"COc1ccc(OC(C)(Cc2ccc(Oc3cc(N4CCN(Cc5ccccc5)CC4)nc(N)n3)cc2)C(=O)O)cc1 (centres unmarked) [Compound 30, 3-{4-[2-Amino-6-(4-benzyl-piperazin-1-yl)-pyrimidin-4-yloxy]-phenyl}-2-(4-methoxy-phenoxy)-2-methyl-propionic acid]",IC50,T24,> 50 µM
same,EC50,PPAR-γ,5.75 µM
same,IC50,HepG2,> 50 µM
same,IC50,SPC-A1,38.9 µM
same,IC50,MCF-7,42.8 µM
"Cc1ccc(OC(C)(Cc2ccc(Oc3cc(N4CCN(Cc5ccccc5)CC4)nc(N)n3)cc2)C(=O)O)cc1 (centres unmarked) [Compound 31, 3-{4-[2-Amino-6-(4-benzyl-piperazin-1-yl)-pyrimidin-4-yloxy]-phenyl}-2-methyl-2-p-tolyloxy-propionic acid]",IC50,T24,40.8 µM
same,EC50,PPAR-γ,3.8 µM
same,IC50,HepG2,45.5 µM
same,IC50,SPC-A1,35.3 µM
same,IC50,MCF-7,29.3 µM
"CC(Cc1ccc(Oc2cc(N3CCN(Cc4ccccc4)CC3)nc(N)n2)cc1)(Oc1ccc(C(F)(F)F)cc1)C(=O)O (centres unmarked) [Compound 32, 3-{4-[2-Amino-6-(4-benzyl-piperazin-1-yl)-pyrimidin-4-yloxy]-phenyl}-2-methyl-2-(4-trifluoromethyl-phenoxy)-propionic acid]",IC50,T24,37.7 µM
same,EC50,PPAR-γ,2.24 µM
same,IC50,HepG2,30 µM
same,IC50,SPC-A1,28 µM
same,IC50,MCF-7,34.2 µM
"CC(Cc1ccc(Oc2cc(N3CCN(Cc4ccco4)CC3)nc(N)n2)cc1)(Oc1ccccc1)C(=O)O (centres unmarked) [Compound 37, 3-{4-[2-Amino-6-(4-furan-2-ylmethyl-piperazin-1-yl)-pyrimidin-4-yloxy]phenyl}-2-methyl-2-phenoxy-propionic acid]",IC50,T24,40.6 µM
same,EC50,PPAR-γ,3.89 µM
same,IC50,HepG2,> 50 µM
same,IC50,SPC-A1,37.6 µM
same,IC50,MCF-7,47.6 µM
